Laboratory results reported in patent EP3442966B1, “NOVEL N-[(PYRIMIDINYLAMINO)PROPANYL]- AND N-[(PYRIDINYLAMINO)PROPANYL]ARYLCARBOXAMIDES” (Boehringer Ingelheim International GmbH, priority 2016, dated 2017).
Read-outs that look alike come from different tables or passages of the source.

Columns and labels:
[1] = target: T1, OX2R (Homo sapiens, UniProt O43614); conditions: WO2016/034882 Table 3 (Method B), cited from earlier work; for IC50: conversion of pIC50
T1 sequence (O43614 1-444): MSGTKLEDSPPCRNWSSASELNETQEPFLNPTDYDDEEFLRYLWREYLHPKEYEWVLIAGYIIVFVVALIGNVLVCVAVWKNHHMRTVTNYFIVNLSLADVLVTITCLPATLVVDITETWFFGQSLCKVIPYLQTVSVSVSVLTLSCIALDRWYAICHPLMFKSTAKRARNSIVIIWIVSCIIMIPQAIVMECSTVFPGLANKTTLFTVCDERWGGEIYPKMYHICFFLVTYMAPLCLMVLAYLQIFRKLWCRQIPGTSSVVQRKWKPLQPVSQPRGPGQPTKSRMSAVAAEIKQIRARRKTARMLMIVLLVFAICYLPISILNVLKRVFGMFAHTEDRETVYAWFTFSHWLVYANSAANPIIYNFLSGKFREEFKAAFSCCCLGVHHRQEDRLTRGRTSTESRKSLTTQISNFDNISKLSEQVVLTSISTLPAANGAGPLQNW

[2] = target: T2, human Orexin 1 receptor (Homo sapiens, UniProt O43613); test: Assay A: in vitro testing of OX1R potency, OX1R IP1 (HTRF) in CHO-K1/hOx1 cells; format: cell-based
T2 construct: stably expressing the full-length human Orexin 1 receptor; expressed in transfected cells; host or cells: CHO-K1 (CHO-K1/hOx1), co-expressing the aequorin photoprotein
T2 sequence (O43613 1-425): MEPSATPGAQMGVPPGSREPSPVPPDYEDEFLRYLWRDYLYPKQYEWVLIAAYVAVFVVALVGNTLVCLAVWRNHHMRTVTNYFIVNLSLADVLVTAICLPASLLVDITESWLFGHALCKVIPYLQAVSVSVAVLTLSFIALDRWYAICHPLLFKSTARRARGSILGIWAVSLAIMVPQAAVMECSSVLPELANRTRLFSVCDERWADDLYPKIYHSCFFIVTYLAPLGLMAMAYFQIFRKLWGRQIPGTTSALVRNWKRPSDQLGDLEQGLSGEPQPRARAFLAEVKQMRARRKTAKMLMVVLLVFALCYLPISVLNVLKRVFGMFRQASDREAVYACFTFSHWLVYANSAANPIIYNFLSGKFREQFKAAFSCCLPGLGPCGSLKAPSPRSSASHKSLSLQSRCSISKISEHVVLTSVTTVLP
Source text: Activation of the orexin receptors expressed in cell lines results in an increase in intracellular IP3 concentration. IP1, a downstream metabolite of IP3, accumulates in cells following receptor activation and is stable in the presence of LiCI. Using Homogeneous Time-Resolved Fluorescence technology with Lumi4-Tb cryptate (commercially available from Cisbio Bioassay) and a suitable fluorescence plate reader. […] This technique is used to characterize pharmacological modification of the orexin receptors.
IP1 measurements are performed in CHO-K1 cells stably expressing the full-length human Orexin 1 receptor and the aequorin photoprotein. Cells are cultivated in Ham's nutrient mixture F12 medium with 10% fetal calf serum, in a 37°C, 95% humidity and 5% CO2 incubator. The CHO-K1/hOx1 cell mass is expanded to larger cell numbers. The cells are obtained as frozen cells in cryo-vials and stored until use at -150°C.
In preparation for the assay, 24 hours before the assay, the cells are thawed at 37°C and immediately diluted with cell culture medium. After centrifugation, the cell pellet is re-suspended in medium and then distributed into the assay plates with a density of 10000 cells/25 µL per well. The plates are incubated for one hour at room temperature to reduce edge effects before they are incubated for 24 hours at 37°C/5% CO2. Compounds are prepared by an 8-point serial dilution in DMSO and a final dilution step into assay buffer (HBSS with 20 mM HEPES, 0.1% BSA and 50 mM LiCl, pH 7.4) to ensure a final DMSO concentration of 1% in the assay.
On the day of the assay, cells in the plate are washed twice with 60 µL assay buffer (20 µL buffer remained in the wells after washing), followed by adding 5 µL per well of compounds diluted in assay buffer. After 15 minutes of incubation at room temperature 5 µL per well of Orexin A peptide (final concentration: 0.5 nM, and/or 50 nM for selected compounds) dissolved in assay buffer is added to the assay plate. The assay plate is incubated for 60 minutes at 37°C. Then 5 µL per well of Anti-IP1-Cryptate Tb solution and 5 µL per well of IP1-d2 dilution are added and the plate is incubated for a further 60 minutes light protected at room temperature.
8-point four parametric non-linear curve fitting and determination of IC50 values and Hill slopes is performed using a regular analysis software e.g. AssayExplorer (Accelrys).

[3] = target: T1, OX2R; conditions: WO2016/034882 Table 2 (Method A), cited from earlier work; for IC50: conversion of pIC50
[4] = target: T3, human orexin 2 receptor (Homo sapiens, UniProt O43614); test: Assay B: in vitro testing of OX2R potency, OX2R IP1 (HTRF) in CHO-K1/hOx2 cells; format: cell-based; conditions: 0.5 nM Orexin A concentration
T3 construct: stably expressing the full-length human orexin 2 receptor; expressed in transfected cells; host or cells: CHO-K1 (CHO-K1/hOx2), co-expressing the aequorin photoprotein
T3 sequence (O43614 1-444): T1 sequence (O43614 1-444)

[5] = target: T4, OX1R (Homo sapiens, UniProt O43613); conditions: data as described in WO03/051872 (page 16-18); given as a range; cited from earlier work
T4 sequence (O43613 1-425): T2 sequence (O43613 1-425)

[6] = target: T1, OX2R; conditions: data as described in WO03/051872 (page 16-18); given as a range; cited from earlier work
[7] = target: T4, OX1R; test: OX1R assay of WO2016/034882, Table 3 (Method B); format: cell-based; conditions: ratio from WO2016/034882 Table 3 (Method B) values
[8] = selectivity ratio, OX1R Kb at 50 nM Orexin A, OX2R Kb at 0.5 nM Orexin A

| SMILES | OX2R Kb / OX1R Kb [2, 8] | also measured |
| --- | --- | --- |
| CC[C@@H](CNc1ncc(C(F)(F)F)cn1)N(CC)C(=O)c1nc(C)ccc1-n1nccn1 [Ex 73 in WO2016/ 034882] | – | OX2R pIC50 [1]: < 6.0; IC50 [1]: > 1 µM |
| CCN(C(=O)c1cccc(F)c1-n1nccn1)[C@@H](C)CNc1ccc(Cl)cn1 [Example 17] | 268 | – |
| CCN(C(=O)c1cccc(F)c1-c1ncccn1)[C@@H](C)CNc1ccc(F)c(C(F)(F)F)n1 [Example 12] | 216 | – |
| CC[C@@H](CNc1ccc(Cl)cn1)N(C)C(=O)c1cc(C)ccc1-n1nccn1 [Ex 1 in WO2016/ 034882] | – | IC50 [3]: 1.26 µM |
| CCN(C(=O)c1cccc(F)c1-n1nccn1)[C@@H](C)CNc1ncc(C(F)(F)F)cc1F [Example 16] | 560 | – |
| CCN(C(=O)c1ccc(C)c(C)c1-n1nccn1)[C@@H](C)CNc1ccc(Cl)cn1 [Example 14] | 1018 | – |
| CCN(C(=O)c1nc(C)sc1-c1ccc(F)cc1)[C@@H](C)CNc1ncc(C(F)(F)F)cn1 [Example 8] | 367 | – |
| CCN(C(=O)c1nc(C)sc1-c1ccccc1)[C@@H](C)CNc1ncc(C(F)(F)F)cn1 [Example 6] | 527 | – |
| CCN(C(=O)c1c(-n2nccn2)ccc(C)c1F)[C@@H](C)CNc1ncc(C(F)(F)F)cn1 [Example 1] | 529 | – |
| CCN(C(=O)c1cc(C)ccc1-n1nccn1)[C@@H](C)CNc1ncc(C(F)(F)F)cn1 [Example 2] | 379 | – |
| CCN(C(=O)c1ccc(OC)cc1-n1nccn1)[C@@H](C)CNc1ncc(C(F)(F)F)cn1 [Example 20] | 1264 | – |
| CCN(C(=O)c1cc(C)ccc1-n1nccn1)[C@@H](C)CNc1ccc(Cl)cn1 [Example 10] | 403 | – |
| CC[C@@H](CNc1ncc(C(F)(F)F)cn1)N(C)C(=O)c1nc(C)ccc1-c1ncccn1 [Ex 84 in WO2016/ 034882] | – | Kb [4]: 0.229 µM |
| Cc1nc(C(=O)N(C)CCNc2ncc(Br)cn2)c(-c2ccc(F)cc2)s1 [Example 6 in WO03/051872] | – | OX1R pKb [5]: 6.4 to 7.4; OX2R pKb [6]: <6.6 to 7.4 |
| CCN(C(=O)c1cccc(F)c1-c1ncccn1)[C@@H](C)CNc1ccc(C(F)(F)F)cn1 [Example 11] | 212 | – |
| CCN(C(=O)c1cc(F)ccc1-c1ncccn1)[C@@H](C)CNc1ncc(C(F)(F)F)cc1F [Example 13] | 438 | – |
| CC[C@@H](CNc1ccc(C(F)(F)F)cn1)N(CC)C(=O)c1nc(C)ccc1-n1nccn1 [Ex 71 in WO2016/ 034882] | – | OX2R pIC50 [1]: 6.6; OX2R Kb / OX1R Kb [2]: 905 |
| CCN(C(=O)c1nccc(C(F)(F)F)c1-c1ccn(C)n1)[C@@H](C)COc1ccc(C(F)(F)F)cn1 [Example 19] | 230 | – |
| CCN(C(=O)c1ccc(Cl)cc1-n1nccn1)[C@@H](C)CNc1ncc(C(F)(F)F)cn1 [Example 7] | 922 | – |
| CC[C@@H](CNc1ncc(C(F)(F)F)cn1)N(C)C(=O)c1c(F)cccc1-n1nccn1 [Ex 91 in WO2016/ 034882] | – | OX2R IC50 / OX1R IC50 [7]: Table 3: 318; Kb [4]: 0.313 µM; OX2R pIC50 [1]: < 5.1 |
| CCN(C(=O)c1cccc(F)c1-n1nccn1)[C@@H](C)CNc1ccc(F)c(C(F)(F)F)n1 [Example 18] | 209 | – |
| CCN(C(=O)c1cccc(F)c1-n1nccn1)[C@@H](C)CNc1ccc(C(F)(F)F)cn1 [Example 15] | 880 | – |
| CCN(C(=O)c1ccc(C)cc1-n1nccn1)[C@@H](C)CNc1ncc(C(F)(F)F)cn1 [Example 5] | 1783 | – |
| CCN(C(=O)c1cc(OC)ccc1-n1nccn1)[C@@H](C)CNc1ncc(C(F)(F)F)cn1 [Example 4] | 736 | – |
| CC[C@@H](CNc1ncc(C(F)(F)F)cn1)N(C)C(=O)c1cc(Cl)ccc1-n1nccn1 [Ex 39 in WO2016/ 034882] | – | OX2R pIC50 [3]: < 5.0; IC50 [3]: < 10 µM; IC50 [1]: 1.58 µM |
